Assay results: PubChem BioAssay (NCI)
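The compound was tested at five concentrations on cells cultured in 96-well plates, with a 48-hour exposure period. TGI: total growth inhibition.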

Tests used:
Assay in all cases: inhibition of tumour cell growth, NCI panel, 48 h
MOLT-4 leukemia = system: MOLT-4 leukemia
HOP-92 NSCLC = system: HOP-92 NSCLC
SK-MEL-5 melanoma = system: SK-MEL-5 melanoma
COLO 205 colon = system: COLO 205 colon
T-47D breast = system: T-47D breast
MCF7 breast = system: MCF7 breast
SK-MEL-28 melanoma = system: SK-MEL-28 melanoma
OVCAR-3 ovarian = system: OVCAR-3 ovarian
IGROV1 ovarian = system: IGROV1 ovarian
K-562 leukemia = system: K-562 leukemia
SN12C renal = system: SN12C renal
HCT-116 colon = system: HCT-116 colon
A549 NSCLC = system: A549 NSCLC
ACHN renal = system: ACHN renal
786-0 renal = system: 786-0 renal
TK-10 renal = system: TK-10 renal
MDA-MB-435 = system: MDA-MB-435
RXF 393 renal = system: RXF 393 renal
KM12 colon = system: KM12 colon
PC-3 prostate = system: PC-3 prostate
HT29 colon = system: HT29 colon
SK-MEL-2 melanoma = system: SK-MEL-2 melanoma
LOX IMVI melanoma = system: LOX IMVI melanoma
OVCAR-8 ovarian = system: OVCAR-8 ovarian
HCT-15 colon = system: HCT-15 colon
SK-OV-3 ovarian = system: SK-OV-3 ovarian
RPMI-8226 leukemia = system: RPMI-8226 leukemia
HL-60(TB) leukemia = system: HL-60(TB) leukemia
UACC-257 melanoma = system: UACC-257 melanoma
U251 CNS = system: U251 CNS
UACC-62 melanoma = system: UACC-62 melanoma
NCI-H226 lung = system: NCI-H226 lung
OVCAR-4 ovarian = system: OVCAR-4 ovarian
CAKI-1 renal = system: CAKI-1 renal
NCI/ADR-RES ovarian = system: NCI/ADR-RES ovarian
A498 renal = system: A498 renal
SR leukemia = system: SR leukemia
BT-549 breast = system: BT-549 breast
SF-295 CNS = system: SF-295 CNS
DU-145 prostate = system: DU-145 prostate
HS 578T breast = system: HS 578T breast
HOP-62 NSCLC = system: HOP-62 NSCLC
MDA-MB-231 breast = system: MDA-MB-231 breast
EKVX NSCLC = system: EKVX NSCLC
NCI-H522 lung = system: NCI-H522 lung
SNB-75 CNS = system: SNB-75 CNS
SF-539 CNS = system: SF-539 CNS
NCI-H460 lung = system: NCI-H460 lung
HCC-2998 colon = system: HCC-2998 colon
CCRF-CEM leukemia = system: CCRF-CEM leukemia
SW-620 colon = system: SW-620 colon
OVCAR-5 ovarian = system: OVCAR-5 ovarian
MDA-N = system: MDA-N
SNB-19 CNS = system: SNB-19 CNS

Clc1cccc2[nH]ncc12
TGI (MOLT-4 leukemia): > 100 µM | TGI (HOP-92 NSCLC): > 100 µM | TGI (SK-MEL-5 melanoma): > 100 µM | TGI (COLO 205 colon): > 100 µM | TGI (T-47D breast): > 100 µM | TGI (MCF7 breast): > 100 µM | TGI (SK-MEL-28 melanoma): > 100 µM | TGI (OVCAR-3 ovarian): > 100 µM | TGI (IGROV1 ovarian): > 100 µM | TGI (K-562 leukemia): > 100 µM | TGI (SN12C renal): > 100 µM | TGI (HCT-116 colon): > 100 µM | TGI (A549 NSCLC): > 100 µM | TGI (ACHN renal): > 100 µM | TGI (786-0 renal): > 100 µM | TGI (TK-10 renal): > 100 µM | TGI (MDA-MB-435): > 100 µM | TGI (RXF 393 renal): > 100 µM | TGI (KM12 colon): > 100 µM | TGI (PC-3 prostate): > 100 µM | TGI (HT29 colon): > 100 µM | TGI (SK-MEL-2 melanoma): > 100 µM | TGI (LOX IMVI melanoma): > 100 µM | TGI (OVCAR-8 ovarian): > 100 µM | TGI (HCT-15 colon): > 100 µM | TGI (SK-OV-3 ovarian): > 100 µM | TGI (RPMI-8226 leukemia): > 100 µM | TGI (HL-60(TB) leukemia): > 100 µM | TGI (UACC-257 melanoma): > 100 µM | TGI (U251 CNS): > 100 µM | TGI (UACC-62 melanoma): > 100 µM | TGI (NCI-H226 lung): > 100 µM | TGI (OVCAR-4 ovarian): > 100 µM | TGI (CAKI-1 renal): > 100 µM | TGI (NCI/ADR-RES ovarian): > 100 µM | TGI (A498 renal): > 100 µM | TGI (SR leukemia): > 100 µM | TGI (BT-549 breast): > 100 µM | TGI (SF-295 CNS): > 100 µM | TGI (DU-145 prostate): > 100 µM | TGI (HS 578T breast): > 100 µM | TGI (HOP-62 NSCLC): > 100 µM | TGI (MDA-MB-231 breast): > 100 µM | TGI (EKVX NSCLC): 95.4 µM | TGI (NCI-H522 lung): > 100 µM | TGI (SNB-75 CNS): > 100 µM | TGI (SF-539 CNS): > 100 µM | TGI (NCI-H460 lung): > 100 µM | TGI (HCC-2998 colon): > 100 µM | TGI (CCRF-CEM leukemia): > 100 µM | TGI (SW-620 colon): > 100 µM | TGI (OVCAR-5 ovarian): > 100 µM | TGI (MDA-N): > 100 µM | TGI (SNB-19 CNS): > 100 µM
